Assay results reported in patent US9079964B2, “Immunoassay for cyclopropylindole based synthetic cannabinoids, metabolites and derivatives thereof” (Randox Laboratories Limited, priority 2013, dated 2015).

How the values were obtained:
[1] = tested on: antiserum raised to Immunogen I; test: Competitive ELISA with IgG fraction of antiserum raised to Immunogen I (second bleed) and hapten 1-HRP detecting agent; type: binding, sheep
Experimental: (§1) The wells of an enhanced binding 96 well polystyrene microtiter plate were coated with IgG fraction of antiserum raised to Immunogen I or II, diluted in 10 mM Tris, pH 8.5 (125 μl/well). The appropriate antibody coating dilution was determined using standard ELISA checkerboard techniques. The plate was incubated overnight at 4° C., washed 4 times over 10 minutes with Tris buffered saline containing Tween20 (TBST) and tapped dry. Standard solutions (UR-144 N-pentanoic acid) were applied at 0, 0.625, 1.25, 2.5, 5, 10, 20 and 40 ng/ml and 50 μl of each was added to the appropriate wells. 75 μl of conjugate (appropriate hapten-HRP) diluted in Tris buffer (pH 7.2) containing EDTA, D-mannitol, sucrose, thimerosol and BSA, was added to each of the wells. The appropriate dilution of conjugate was also determined using standard ELISA checkerboard techniques. The plate was incubated at 25° C. for 1 hour. Excess unbound conjugate was removed by washing 6 times over a ten minute period with TBST. 125 μl of tetramethylbenzidine (TMB) substrate solution was added to each well of the plate that was then incubated for 20 minutes in the dark at room temperature. The reaction was terminated by addition of 125 μl of 0.2 M H2SO4 to each well. The absorbance was then measured at 450 nm using a microtiter plate reader. The data are inputted to a computer program called ‘KC Junior’ (Biotek). It gives a 4 parameter fit curve and allows the calculation of concentrations between the standard runs. This program is used to calculate the IC50 values by dividing the 0 ng/ml optical density (OD) value by 2 and obtaining the concentration value from the curve for this OD.
(§2) Cross-reactivity was calculated according to the following formula: % CR=IC50, UR-144 N-pentanoic acid/IC50, cross reactant×100 Where % CR is the percentage cross-reactivity, IC50, UR-144 N-pentanoic acid is the concentration of UR-144 N-pentanoic acid that causes 50% displacement of signal and IC50, cross reactant is the concentration of the cannabinoid/metabolite/selected molecule that causes 50% displacement of signal.
In order to determine the specificity of the competitive ELISAs, standard solutions of a range of structurally related synthetic cannabinoids and their metabolites were prepared in TBST (Tris-Buffered Saline and Tween 20). Using the calibration curves generated and employing a single level of cross reactants, these were used to determine the cross-reactivity of the immunoassays with these substances.

[2] = tested on: antiserum raised to Immunogen I; test: UR144/XLR11 Synthetic Cannabinoids (Spice) ELISA, antiserum raised to Immunogen I (third bleed); type: binding, sheep; settings: for % Cross-Reactivity: Table 4, relative to UR144 N-Pentanoic Acid = 100; for Concentration of compounds that elicit a negative response: Table 4, negative response at this concentration
Experimental: as §1, §2
A further assay was carried out in accordance with the protocol described in Example 9 using Immunogen I.

[3] = biological target: CB1 receptor (Homo sapiens, UniProt P21554); settings: CB1 versus CB2; cited from earlier work
Chain of CB1 receptor (P21554 whole entry): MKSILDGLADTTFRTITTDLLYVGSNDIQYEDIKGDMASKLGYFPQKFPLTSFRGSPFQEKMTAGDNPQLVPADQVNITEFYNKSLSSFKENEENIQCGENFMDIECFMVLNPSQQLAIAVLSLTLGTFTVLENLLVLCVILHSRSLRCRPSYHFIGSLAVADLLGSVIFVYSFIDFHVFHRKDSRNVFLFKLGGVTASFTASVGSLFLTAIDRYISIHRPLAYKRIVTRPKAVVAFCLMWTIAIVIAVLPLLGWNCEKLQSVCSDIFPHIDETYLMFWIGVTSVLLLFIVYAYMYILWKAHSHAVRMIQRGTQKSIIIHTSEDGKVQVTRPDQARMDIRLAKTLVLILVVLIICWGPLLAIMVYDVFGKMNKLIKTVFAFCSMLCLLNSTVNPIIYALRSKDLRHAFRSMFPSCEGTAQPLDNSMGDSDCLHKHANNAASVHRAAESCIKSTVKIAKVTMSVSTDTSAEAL

[4] = tested on: antibodies provided in European patent application number 2,487,155; settings: antibodies of EP 2,487,155; cited from earlier work
[5] = Table 1, B = absorbance at 450 nm at x ng/ml standard, B0 at 0 ng/ml, second bleed
[6] = Table 1, CR based on 100% for UR-144 N-pentanoic acid
[7] = Table 1, standard concentration which produces 50% B/B0, second bleed
[8] = Table 2, cross-reactant at 100 ng/ml (single level)
[9] = Table 2, cross-reactant tested at 100 ng/ml
[10] = Table 2, cross-reactant tested at 100 ng/ml, relative to UR-144 N-pentanoic acid

SMILES	% B/BO [1, 5] [%]	% Cross-reactivity (CR) [1, 6] [%]	IC50 [1, 7] [µg/mL]	% Cross-Reactivity [2] [%]	lower affinity for the CB1 receptor than for CB2 [3] [×]	cross-reactivity (in words) [4]	% B/BO [1, 8] [%]	IC50 [1, 9] [µg/mL]	% Cross-reactivity (CR) [1, 10] [%]	Concentration of compounds that elicit a negative response [2] [ng/mL]
CCCCCn1cc(C(=O)C2C(C)(C)C2(C)C)c2ccccc21 [UR-144, (1-pentyl-1H-Indol-3-yl)(2,2,3,3-tetramethylcyclopropyl) methanone]	40.5	15.3	0.022815	19	83	no significant cross-reactivity				
O=C(c1cccc2ccccc12)c1cn(CCN2CCOCC2)c2ccccc12 [JWH-200]							86.38	>0.1	<3.0	100
O=C(c1ccccc1I)c1cn(CCCCCF)c2ccccc12 [AM694]							79.00	>0.1	<3.0	100
CCCCCn1cc(C(=O)Cc2ccccc2OC)c2ccccc21 [JWH-250]							85.90	>0.1	<3.0	100
CCCCCn1cc(C(=O)c2cccc3ccccc23)c2cc(O)ccc21 [JWH-018 (5 hydroxyindole)]							94.61	>0.1	<3.0	100
C=CCCCn1cc(C(=O)c2cccc3ccccc23)c2ccccc21 [JWH-022]							91.83	>0.1	<3.0	100
CCCCCn1cc(C(=O)c2ccc(Cl)c3ccccc23)c2ccccc21 [JWH-398]							88.86	>0.1	<3.0	100
CCCCCn1cc(C(=O)c2ccc(OC)c3ccccc23)c2ccccc21 [JWH-081]							97.10	>0.1	<3.0	100
CC1(C)C(C(=O)c2c[nH]c3ccccc23)C1(C)C [UR-144 desalkyl]	38.5	18.1	0.019207	13						
CC1(C)C(C(=O)c2cn(CCCCCO)c3ccccc23)C1(C)C [UR-144 N-pentanol]	13.0	109.2	0.003191	110						
CC1(C)C(C(=O)c2cn(CCCCC(=O)O)c3ccccc23)C1(C)C [UR-144 N-pentanoic acid]	16.8	100	0.003484	100						
CCCn1c(C)c(C(=O)c2cccc3ccccc23)c2ccccc21 [JWH-015]							89.77	>0.1	<3.0	100
